Data from US20160046618A1, “Cyclopropyl Fused Thiazin-2-Amine Compounds as Beta-Secretase Inhibitors and Methods of Use” (AMGEN INC., priority 2014, published 2016).

Columns and labels:
human recombinant BACE1 = human recombinant BACE1 (Homo sapiens (Human), UniProt P56817); assay: In vitro enzymatic BACE1 FRET assay; type: biochemical; details: read-out: IC50 IP (μM) BACE1 enzyme
Summary of the method: (§1)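 Tris addition raises the pH to neutral to stop the reaction before fluorescence is measured at 590 nm emission with 488 nm excitation.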

human recombinant BACE2 = human recombinant BACE2 (Homo sapiens (Human), UniProt Q9Y5Z0); assay: In vitro enzymatic BACE2 FRET assay; type: biochemical; details: read-out: IC50 IP (μM) BACE2 enzyme
Summary of the method: as §1

[1] = tested on: Aβ40 in conditioned medium of cells stably expressing Amyloid Precursor Protein (APP); assay: In vitro BACE-1 cell-based assay (Aβ40 sandwich ELISA); details: read-out: IC50 IP (μM) BACE1 cell
Summary of the method: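 Read-out: time-resolved fluorescence (Streptavidin-Europium) of Aβ40 captured by pAb40 and detected with biotinylated 6E10 from supernatants of APP-stable cells. Cells were exposed to compound for 24 h, 10-point dose response, top dose 100 μM or 10 μM, 0.1% DMSO. IC50 fitted to percent of control.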

Recombinant Cat D = Recombinant Cat D (Homo sapiens (Human), UniProt P07339); assay: In vitro enzymatic Cathepsin D (Cat D) FRET assay; type: biochemical; details: read-out: IC50 IP (μM) CatD
Summary of the method: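 Recombinant Cat D expressed in CHO cells, assayed in 0.05 M citrate pH 3.5 with 5 mM CHAPS and 10% DMSO final. Reaction started with 20 nM FRET peptide substrate, incubated one hour, then stopped by Tris buffer to neutral pH; fluorescence read at ex 500/em 580 nm.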

Chain of human recombinant BACE2 (Q9Y5Z0 63-518): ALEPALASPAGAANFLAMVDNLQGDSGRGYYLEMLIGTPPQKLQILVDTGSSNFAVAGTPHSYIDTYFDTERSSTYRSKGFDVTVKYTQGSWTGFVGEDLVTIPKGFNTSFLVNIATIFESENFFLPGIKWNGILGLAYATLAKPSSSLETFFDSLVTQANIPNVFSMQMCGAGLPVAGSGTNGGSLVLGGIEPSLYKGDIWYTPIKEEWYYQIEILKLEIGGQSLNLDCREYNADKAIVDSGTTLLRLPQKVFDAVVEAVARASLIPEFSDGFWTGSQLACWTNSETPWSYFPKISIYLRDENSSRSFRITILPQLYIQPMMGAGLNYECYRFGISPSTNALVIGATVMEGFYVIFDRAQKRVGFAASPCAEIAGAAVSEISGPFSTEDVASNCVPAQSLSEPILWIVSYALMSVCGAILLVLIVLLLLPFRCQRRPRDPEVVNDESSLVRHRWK
Chain of Recombinant Cat D (P07339 65-412): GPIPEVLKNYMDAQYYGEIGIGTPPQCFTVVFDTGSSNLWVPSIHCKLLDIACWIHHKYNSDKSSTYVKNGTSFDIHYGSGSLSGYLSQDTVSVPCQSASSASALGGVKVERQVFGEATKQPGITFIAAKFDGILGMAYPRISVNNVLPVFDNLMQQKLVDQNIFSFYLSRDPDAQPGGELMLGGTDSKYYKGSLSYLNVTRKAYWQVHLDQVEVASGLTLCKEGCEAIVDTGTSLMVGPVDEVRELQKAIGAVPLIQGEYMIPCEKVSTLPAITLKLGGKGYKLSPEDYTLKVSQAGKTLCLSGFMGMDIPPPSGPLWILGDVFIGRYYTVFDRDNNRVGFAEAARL
Chain of human recombinant BACE1 (P56817 46-501): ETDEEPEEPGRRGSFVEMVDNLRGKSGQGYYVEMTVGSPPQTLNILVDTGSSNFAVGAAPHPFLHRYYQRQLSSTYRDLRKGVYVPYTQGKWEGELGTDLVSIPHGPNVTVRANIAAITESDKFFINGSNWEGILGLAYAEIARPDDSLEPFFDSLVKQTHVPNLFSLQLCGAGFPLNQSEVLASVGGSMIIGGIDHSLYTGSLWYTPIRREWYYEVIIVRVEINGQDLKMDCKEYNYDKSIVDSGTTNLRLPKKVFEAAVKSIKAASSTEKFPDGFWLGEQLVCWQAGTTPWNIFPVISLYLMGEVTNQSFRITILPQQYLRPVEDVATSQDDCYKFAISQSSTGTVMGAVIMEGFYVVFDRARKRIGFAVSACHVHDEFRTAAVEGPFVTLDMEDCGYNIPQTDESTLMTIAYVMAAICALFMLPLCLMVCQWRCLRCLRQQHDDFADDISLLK

SMILES	IC50 (human recombinant BACE1) [µM]	IC50 (human recombinant BACE2) [µM]	IC50 [1] [µM]	IC50 (Recombinant Cat D) [µM]
COC[C@]12C[C@H]1[C@@](C)(c1cc(NC(=O)c3c[nH]c(=O)cn3)cc(F)c1F)N=C(N)S2 [Example 1027, N-(3-((1S,5S,6S)-3-amino-1-(methoxymethyl)-5-methyl-2-thia-4-azabicyclo[4.1.0]hept-3-en-5-yl)-4,5-difluorophenyl)-5-oxo-4,5-dihydro-2-pyrazinecarboxamide]	0.0196	0.0565	0.136	981
COC[C@]12C[C@H]1[C@@](C)(c1cc(NC(=O)c3cnc(OCC(C)C)cn3)cc(F)c1F)N=C(N)S2 [Example 1028, N-(3-((1S,5S,6S)-3-amino-1-(methoxymethyl)-5-methyl-2-thia-4-azabicyclo[4.1.0]hept-3-en-5-yl)-4,5-difluorophenyl)-5-(2-methylpropoxy)-2-pyrazinecarboxamide]	0.00195	0.226	0.0293	135
COC[C@]12C[C@H]1[C@@](C)(c1cc(NC(=O)c3cnc(OCc4nccs4)cn3)cc(F)c1F)N=C(N)S2 [Example 1034, N-(3-((1S,5S,6S)-3-amino-1-(methoxymethyl)-5-methyl-2-thia-4-azabicyclo[4.1.0]hept-3-en-5-yl)-4,5-difluorophenyl)-5-(1,3-thiazol-2-ylmethoxy)-2-pyrazinecarboxamide]	0.0014	0.0118	0.0109	1400
COC[C@]12C[C@H]1[C@@](C)(c1cc(NC(=O)c3cnc(OCC4CC4(F)F)cn3)cc(F)c1F)N=C(N)S2 (stereo partly drawn) [Example 1035, N-(3-((1S,5S,6S)-3-amino-1-(methoxymethyl)-5-methyl-2-thia-4-azabicyclo[4.1.0]hept-3-en-5-yl)-4,5-difluorophenyl)-5-((2,2-difluorocyclopropyl)methoxy)pyrazine-2-carboxamide]	0.00258	0.1	0.022	1210
C[C@]1(c2cc(NC(=O)c3cnc(OCC(F)(F)F)cn3)ccc2F)N=C(N)S[C@@]2(C(=O)NCCF)C[C@H]21 [Example 1040, (1S,5S,6S)-3-amino-5-(2-fluoro-5-(5-(2,2,2-trifluoroethoxy)pyrazine-2-carboxamido)phenyl)-N-(2-fluoroethyl)-5-methyl-2-thia-4-azabicyclo[4.1.0]hept-3-ene-1-carboxamide]	0.000426	0.0555	0.00284	212
CC1(NC(=O)[C@]23C[C@H]2[C@@](C)(c2cc(NC(=O)c4cnc(OCC(F)(F)F)cn4)ccc2F)N=C(N)S3)CC1 [Example 1041, (1S,5S,6S)-3-amino-5-(2-fluoro-5-(5-(2,2,2-trifluoroethoxy)pyrazine-2-carboxamido)phenyl)-5-methyl-N-(1-methylcyclopropyl)-2-thia-4-azabicyclo[4.1.0]hept-3-ene-1-carboxamide]	0.00176	0.222	0.00692	324
COC[C@]12C[C@H]1[C@@](C)(c1cc(NC(=O)c3cnc(OCc4nc(C)no4)cn3)cc(C)c1F)N=C(N)S2 [Example 1044, N-(3-((1S,5S,6S)-3-amino-1-(methoxymethyl)-5-methyl-2-thia-4-azabicyclo[4.1.0]hept-3-en-5-yl)-4-fluoro-5-methylphenyl)-5-((3-methyl-1,2,4-oxadiazol-5-yl)methoxy)-2-pyrazinecarboxamide]	0.001	0.0987	0.017	291
C#CCOc1cnc(C(=O)Nc2cc(F)c(F)c([C@@]3(C)N=C(N)S[C@@]4(COCC)C[C@H]43)c2)cn1 [Example 1046, N-(3-((1S,5S,6S)-3-amino-1-(ethoxymethyl)-5-methyl-2-thia-4-azabicyclo[4.1.0]hept-3-en-5-yl)-4,5-difluorophenyl)-5-(2-propyn-1-yloxy)-2-pyrazinecarboxamide]	0.00037	0.0307	0.0162	43.5

Further molecules by falling IC50 (human recombinant BACE1), results first:

IC50 (human recombinant BACE1) [µM]	IC50 (human recombinant BACE2) [µM]	IC50 [1] [µM]	IC50 (Recombinant Cat D) [µM]	SMILES
0.00741	0.459	0.0541	1140	COC[C@]12C[C@H]1[C@@](C)(c1cc(NC(=O)c3cnc(OCC4CCO4)cn3)cc(F)c1F)N=C(N)S2 (stereo partly drawn) [Example 1029, N-(3-((1S,5S,6S)-3-amino-1-(methoxymethyl)-5-methyl-2-thia-4-azabicyclo[4.1.0]hept-3-en-5-yl)-4,5-difluorophenyl)-5-(oxetan-2-ylmethoxy)pyrazine-2-carboxamide]
0.0054	0.189	0.015	> 400	CC#CCCOc1cnc(C(=O)Nc2ccc(F)c([C@@]3(C)N=C(N)S[C@@]4(COC)C[C@H]43)c2)cn1 [Example 1047, N-(3-((1S,5S,6S)-3-amino-1-(methoxymethyl)-5-methyl-2-thia-4-azabicyclo[4.1.0]hept-3-en-5-yl)-4-fluorophenyl)-5-(3-pentyn-1-yloxy)-2-pyrazinecarboxamide]
0.00496	0.115	0.0936	475	COC[C@]12C[C@H]1[C@@](C)(c1cc(NC(=O)c3cnc(OCC4CC(F)(F)C4)cn3)cc(F)c1F)N=C(N)S2 [Example 1026, N-(3-((1S,5S,6S)-3-amino-1-(methoxymethyl)-5-methyl-2-thia-4-azabicyclo[4.1.0]hept-3-en-5-yl)-4,5-difluorophenyl)-5-((3,3-difluorocyclobutyl)methoxy)-2-pyrazinecarboxamide]
0.00213	0.072	0.0414	243	C=C(C)COc1cnc(C(=O)Nc2cc(F)c(F)c([C@@]3(C)N=C(N)S[C@@]4(COC)C[C@H]43)c2)cn1 [Example 1030, N-(3-((1S,5S,6S)-3-amino-1-(methoxymethyl)-5-methyl-2-thia-4-azabicyclo[4.1.0]hept-3-en-5-yl)-4,5-difluorophenyl)-5-((2-methyl-2-propen-1-yl)oxy)-2-pyrazinecarboxamide]
0.00181	0.288	0.0738	194	CC(NC(=O)[C@]12C[C@H]1[C@@](C)(c1cc(NC(=O)c3cnc(OCC(F)(F)F)cn3)ccc1F)N=C(N)S2)C(F)F (stereo partly drawn) [Example 1045, (1S,5S,6S)-3-amino-N-(1,1-difluoropropan-2-yl)-5-(2-fluoro-5-(5-(2,2,2-trifluoroethoxy)pyrazine-2-carboxamido)phenyl)-5-methyl-2-thia-4-azabicyclo[4.1.0]hept-3-ene-1-carboxamide]
0.00107	0.0897	0.152	775	COC[C@]12C[C@H]1[C@@](C)(c1cc(NC(=O)c3cnc(OCc4cc(C)no4)cn3)cc(F)c1F)N=C(N)S2 [Example 1031, N-(3-((1S,5S,6S)-3-amino-1-(methoxymethyl)-5-methyl-2-thia-4-azabicyclo[4.1.0]hept-3-en-5-yl)-4,5-difluorophenyl)-5-((3-methyl-5-isoxazolyl)methoxy)-2-pyrazinecarboxamide]
0.00106	0.0465	0.0323	1020	COC[C@]12C[C@H]1[C@@](C)(c1cc(NC(=O)c3cnc(OCc4cc(C)on4)cn3)cc(F)c1F)N=C(N)S2 [Example 1032, N-(3-((1S,5S,6S)-3-amino-1-(methoxymethyl)-5-methyl-2-thia-4-azabicyclo[4.1.0]hept-3-en-5-yl)-4,5-difluorophenyl)-5-((5-methyl-3-isoxazolyl)methoxy)-2-pyrazinecarboxamide]
0.00105	0.0323	0.101	230	COC[C@]12C[C@H]1[C@@](C)(c1cc(NC(=O)c3cnc(OCc4ccccc4)cn3)cc(F)c1F)N=C(N)S2 [Example 1033, N-(3-((1S,5S,6S)-3-amino-1-(methoxymethyl)-5-methyl-2-thia-4-azabicyclo[4.1.0]hept-3-en-5-yl)-4,5-difluorophenyl)-5-(benzyloxy)-2-pyrazinecarboxamide]
0.000803	0.128	0.0467	785	COC[C@]12C[C@H]1[C@@](C)(c1cc(NC(=O)c3cnc(OCc4nnc(C)o4)cn3)cc(F)c1F)N=C(N)S2 [Example 1037, N-(3-((1S,5S,6S)-3-amino-1-(methoxymethyl)-5-methyl-2-thia-4-azabicyclo[4.1.0]hept-3-en-5-yl)-4,5-difluorophenyl)-5-((5-methyl-1,3,4-oxadiazol-2-yl)methoxy)-2-pyrazinecarboxamide]
0.000352	0.00931	0.0138	196	C#CCOc1cnc(C(=O)Nc2cc(C)c(F)c([C@@]3(C)N=C(N)S[C@@]4(COC)C[C@H]43)c2)cn1 [Example 1043, N-(3-((1S,5S,6S)-3-amino-1-(methoxymethyl)-5-methyl-2-thia-4-azabicyclo[4.1.0]hept-3-en-5-yl)-4-fluoro-5-methylphenyl)-5-(2-propyn-1-yloxy)-2-pyrazinecarboxamide]
0.000317	0.0159	0.00621	55.6	C#CCOc1cnc(C(=O)Nc2cc(F)c(F)c([C@@]3(C)N=C(N)S[C@@]4(CNC(C)=O)C[C@H]43)c2)cn1 [Example 1042, N-(3-((1S,5S,6S)-1-(acetamidomethyl)-3-amino-5-methyl-2-thia-4-azabicyclo[4.1.0]hept-3-en-5-yl)-4,5-difluorophenyl)-5-(prop-2-yn-1-yloxy)pyrazine-2-carboxamide]
